Data on 16 molecules can be found in the NIST ThermoML archive (doi:10.1016/j.fluid.2014.11.020).

Numbers after ± are expanded uncertainties.

A short description of the data set: activity coefficient (dimensionless); of the first substance listed, at infinite dilution; xn = mol fraction of the nth substance listed. To be noted: Liquid, Chromatography, x1 = 0.

As for `CCCCCCCCCCCC` [dodecane] + CCCOC[n+]1ccc(N(C)C)cc1.O=S(=O)([N-]S(=O)(=O)C(F)(F)F)C(F)(F)F, the activity coefficient runs as follows: (323.15 K) 73.5 ± 5; (333.15 K) 69.4 ± 4.8; (343.15 K) 61.7 ± 4.2.
As to `CCCCCCCC` [octane] + CCCCCCCCn1cc[n+](COCCCOC[n+]2ccn(CCCCCCCC)c2C)c1C.N#C[N-]C#N.N#C[N-]C#N, the activity coefficient reads like this: (323.15 K) 12.1 ± 0.82; (333.15 K) 11.4 ± 0.78; (343.15 K) 11.3 ± 0.77.
Turning to `CC(C)OC(C)C` [diisopropyl ether] + CCCOC[n+]1ccn(C)c1.O=S(=O)([N-]S(=O)(=O)C(F)(F)F)C(F)(F)F, the activity coefficient (323.15 K) came out at 4.69 ± 0.32, the activity coefficient (333.15 K) amounted to 4.82 ± 0.33 and the activity coefficient (343.15 K) was 4.46 ± 0.3.
Turning to `Cc1cccc(C)c1` [1,3-dimethylbenzene] + CCCOC[n+]1ccc(N(C)C)cc1.O=S(=O)([N-]S(=O)(=O)C(F)(F)F)C(F)(F)F, the activity coefficient runs as follows: (323.15 K) 1.4 ± 0.09; (333.15 K) 1.47 ± 0.1; (343.15 K) 1.48 ± 0.1.
For `Cc1ccc(C)cc1` [1,4-dimethylbenzene] + CCCOC[n+]1ccn(C)c1.N#C[N-]C#N, in that order: 5.98 ± 0.41, 6.03 ± 0.41 and 6.05 ± 0.41.
In the same order, the values of `CCCCCCCCCCC` [undecane] + CCCOC[n+]1ccn(Cc2ccccc2)c1.O=S(=O)([N-]S(=O)(=O)C(F)(F)F)C(F)(F)F are 41.6 ± 2.9, 31 ± 2.1 and 27.7 ± 1.9.
For `CCCCCCCCCC` [decane] + CCCCCCCCn1cc[n+](COCCCOC[n+]2ccn(CCCCCCCC)c2C)c1C.N#C[N-]C#N.N#C[N-]C#N, in that order: 19.5 ± 1.3, 19.5 ± 1.3 and 17.8 ± 1.2.
Turning to `CCC(C)=O` [butanone] + CCCOC[n+]1ccn(C)c1.O=S(=O)([N-]S(=O)(=O)C(F)(F)F)C(F)(F)F, the activity coefficient is 0.47 ± 0.04 (323.15 K), 0.43 ± 0.04 (333.15 K) and 0.4 ± 0.03 (343.15 K).
In the same order, the values of `C1CCCCCC1` [cycloheptane] + CCCCCCCCn1cc[n+](COCCCOC[n+]2ccn(CCCCCCCC)c2C)c1C.N#C[N-]C#N.N#C[N-]C#N are 10.1 ± 0.69, 13.5 ± 0.92 and 18.3 ± 1.2.
For `C1CCCCCC1` [cycloheptane] + CCCOC[n+]1ccn(C)c1.N#C[N-]C#N, in that order: 79.2 ± 5.4, 105 ± 7.2 and 133 ± 9.1.
For the molecule `C1CCCCC1` [cyclohexane] + CCCOC[n+]1ccn(Cc2ccccc2)c1.N#C[N-]C#N, the activity coefficient is, setting by setting: (323.15 K) 13.1 ± 0.9; (333.15 K) 12.3 ± 0.84; (343.15 K) 11.5 ± 0.79.
For `CCC(=O)CC` [pentan-3-one] + Cn1cc[n+](COCCCOC[n+]2ccn(C)c2)c1.N#C[N-]C#N.N#C[N-]C#N, in that order: 3.39 ± 0.23, 3.49 ± 0.24 and 3.46 ± 0.24.
On to `CCCCCCCCC` [nonane] + CCCOC[n+]1ccn(Cc2ccccc2)c1.O=S(=O)([N-]S(=O)(=O)C(F)(F)F)C(F)(F)F, for which the activity coefficient runs as follows: (323.15 K) 23.3 ± 1.6; (333.15 K) 19.1 ± 1.3; (343.15 K) 17.5 ± 1.2.
Turning to `C1CCCCC1` [cyclohexane] + CCCOC[n+]1ccn(C)c1.N#C[N-]C#N, the activity coefficient turned out to be 26.6 ± 1.8 (323.15 K), 24.3 ± 1.7 (333.15 K) and 22.7 ± 1.6 (343.15 K).
For the molecule `C1CCCCCC1` [cycloheptane] + N#C[N-]C#N.N#C[N-]C#N.c1ccc(Cn2cc[n+](COCCCOC[n+]3ccn(Cc4ccccc4)c3)c2)cc1, the activity coefficient was 117 ± 8 (323.15 K), 139 ± 9.6 (333.15 K) and 171 ± 12 (343.15 K).
For `CCCCO` [butan-1-ol] + CCCOC[n+]1ccn(C)c1.O=S(=O)([N-]S(=O)(=O)C(F)(F)F)C(F)(F)F, in that order: 2.37 ± 0.16, 2.09 ± 0.14 and 1.89 ± 0.13.
